Tests used:
[1] = in vivo; settings: male, Sprague-Dawley, rat, plasma, po, 10 mg/kg
Experimental: PEA was also dosed intravenously at 1 mg/kg. Blood samples were collected up to 8 hours post-dose, and PEA and PEA-prodrug plasma concentrations were determined with a qualified LC-MS/MS method. Pharmacokinetic analysis was conducted by a non-compartmental model using Phoenix WinNonlin v.6.4 software.
The IV dosing solution was prepared fresh on the day of dosing at 0.5 mg/mL in a vehicle comprised of 10% solutol HS15, 10% n-methylpyrrolidone (NMP), 10% polyethylene glycol 400 (PEG400), and 70% water. For PO dosing, torpac capsules were loaded with an appropriate amount of PEA, PEA-prodrug, or normast powder. […] The prodrug dose in group 5 was the maximum amount of powder that would fit into a single capsule.
The pharmacokinetics of PEA and the PEA-prodrug were evaluated in fasted male Sprague-Dawley rats. Rats were housed one per cage. Each rat was fitted with a jugular vein cannula (JVC) for blood collection. Rats intended for IV dosing were fitted with an additional JVC for dosing. Each study group was dosing in triplicate. Rats were fasted for a minimum of twelve hours prior to dosing. Food was returned at four hours post dosing. Animals had free access to water throughout the study.
Blood samples (˜300 μL) were collected from the rats via a JVC and placed into chilled polypropylene tubes containing sodium heparin as an anticoagulant, and 30 μL of 0.5 M citric acid. Samples were maintained chilled throughout processing. Blood samples were centrifuged at 4° C. and 3,000 g for 5 minutes. Plasma (˜150 μL) was then transferred to a chilled, labeled polypropylene tube containing 15 μL of 10% formic acid, placed on dry ice, and stored in a freezer maintained at −60° C. to −80° C.
Pharmacokinetic parameters were determined with Phoenix WinNonlin (v6.4) software using a non-compartmental model. Maximum plasma concentrations (C0) after IV dosing were estimated by extrapolation of the first two time points back to t=0. […] Area under the time concentration curve (AUC) was calculated using the linear trapezoidal rule with calculation to the last quantifiable data point, and with extrapolation to infinity if applicable. […] Mean residence time, MRT, was calculated by dividing the area under the moment curve (AUMC) by the AUC. Clearance (CL) was calculated from dose/AUC. Steady-state volume of distribution (Vss) was calculated from CL*MRT (mean residence time). Bioavailability was determined by dividing the individual PO dose normalized AUClast values by the average IV AUClast value. Any samples below the limit of quantitation were treated as zero for pharmacokinetic data analysis.
Measured concentrations of PEA in plasma samples were corrected by subtracting the concentration of PEA measured in the pre-dose samples. […] Any corrected values that were negative are reported as not determined (ND).

[2] = tested on: patients with pain; settings: meta-analysis of 12 PEA pain studies; placebo 21%; cited from earlier work
[3] = Pharmacokinetics of PEA after intravenous administration in male Sprague-Dawley rats; format: in vivo, Sprague-Dawley rat; settings: for AUC(0-t): AUClast; for MRT last: MRTlast
Experimental: Rats were housed one per cage. […] Each study group was dosing in triplicate.
Samples were maintained chilled throughout processing.
Clearance (CL) was calculated from dose/AUC.

[4] = male, Sprague-Dawley, rat, in vivo, iv, 1 mg/kg, Mean
[5] = male, Sprague-Dawley, rat, in vivo, iv, 1 mg/kg, individual rats
[6] = male, Sprague-Dawley, rat, in vivo, iv, 1 mg/kg, Plasma concentration of PEA, Mean
[7] = male, Sprague-Dawley, rat, in vivo, iv, 1 mg/kg, Plasma concentration of PEA, individual rats

Cmax [1]: 5.3 ng/mL
Tmax [1]: 120 min
concentration at 1 hr [1]: 2.34 ng/mL
concentration at 2 hr [1]: 5.3 ng/mL
C0, Mean ([3]; PEA IV 1 mg/kg, extrapolated to t = 0): 251 ng/mL
Tmax ([3]; male, Sprague-Dawley, rat, in vivo, iv, 1 mg/kg): 0 h
AUC(0-t) [3, 4]: 62.1 ng·h/mL
AUC(0-t) [3, 5]: 53.3 ng·h/mL
AUC(0-inf) [3, 4]: 68.4 ng·h/mL
AUC(0-inf) [3, 5]: 57.6 ng·h/mL
clearance ([3]; male, Sprague-Dawley, rat, in vivo, iv, 1 mg/kg, CL (average clearance rate), Mean): 252 mL/min/kg
clearance ([3]; male, Sprague-Dawley, rat, in vivo, iv, 1 mg/kg, CL, individual rats): 290 mL/min/kg
MRT last [3, 4]: 24.1 min
MRT last [3, 5]: 23.9 min
concentration at 0.083 hr [3, 6]: 144 ng/mL
concentration at 0.25 hr [3, 6]: 48.2 ng/mL
concentration at 0.5 hr [3, 6]: 31.2 ng/mL
concentration at 1 hr [3, 6]: 11.2 ng/mL
concentration at 2 hr [3, 6]: 6.91 ng/mL
concentration at 0.083 hr [3, 7]: 122 ng/mL
concentration at 0.25 hr [3, 7]: 47.2 ng/mL
concentration at 0.5 hr [3, 7]: 27.5 ng/mL
concentration at 2 hr [3, 7]: 5.2 ng/mL
Vd ([3]; male, Sprague-Dawley, rat, in vivo, iv, 1 mg/kg, Vss (average volume of distribution), Mean): 9.12 ± 0.832 L/kg
Vd ([3]; male, Sprague-Dawley, rat, in vivo, iv, 1 mg/kg, Vss, individual rats): 10 L/kg
half-life ([3]; male, Sprague-Dawley, rat, in vivo, iv, 1 mg/kg, t1/2 (average half-life), Mean): 35.8 ± 9.9 min
half-life ([3]; male, Sprague-Dawley, rat, in vivo, iv, 1 mg/kg, t1/2, individual rats): 33.8 min
SMILES: CCCCCCCCCCCCCCCC(=O)NCCO [PEA, palmitoylethanolamide]
treated patients achieving VAS scores <=3 [2]: 67%
